Melting point data for 88 molecules are collected here from a melting point compilation (Tetko et al.).

A word on the melting point: it is the temperature, or range, at which the solid turns liquid. Molecule `COc1ccccc1NC(=O)Cc1noc(CCl)n1` had a melting point of 95 to 97 °C.

In the case of `Nc1ccc(Cl)cc1C(=O)Nc1ccncc1`, the melting point lay within 169 to 171 °C.

Take `Clc1cc(-c2nnco2)ccn1`: the melting point lay within 109 to 111 °C.

In turn, `ICc1cccc2cccnc12` gave a melting point of 79 to 81 °C.

`CN(C)S(=O)(=O)c1cc(C(=O)O)ccc1Cl` yielded a melting point of 239 to 241 °C.

In turn, `CC1CC(C)CN(S(=O)(=O)c2cccc(C(=O)O)c2)C1` (stereo not drawn) returned a melting point of 217 to 219 °C.

In the case of `NC(=O)CC(NS(=O)(=O)c1ccccc1F)C(=O)O` (stereo not drawn), the melting point lay within 165 to 167 °C.

In turn, `Cc1nc2sc3c(c2c(=O)n1N)CCCCC3` showed a melting point of 199 to 201 °C.

The molecule `NS(=O)(=O)c1cc(Br)ccc1Cl` displayed a melting point of 179 to 181 °C.

In turn, `CCc1cccc2c(CC(=O)O)c[nH]c12` had a melting point of 175 to 177 °C.

`CC(C)C(NS(=O)(=O)c1ccccc1F)C(=O)O` (stereo not drawn) had a melting point of 159 to 161 °C.

For the molecule `NC(=S)CN1C(=O)c2ccccc2S1(=O)=O`, the melting point lay within 160 to 162 °C.

`Clc1ccc2nnc(-c3ccccc3)n2n1` had a melting point of 201 to 203 °C.

Consider `CCOc1ccccc1C(=O)N1CCNCC1`, for which the melting point fell in the range of 82 to 84 °C.

Molecule `CC(C)(C)OC(=O)N1CCC(OC(=O)c2ccc(N)cc2)CC1` yielded a melting point of 147 to 149 °C.

Turning to `N#Cc1c(Cl)nsc1Cl`, the melting point lay within 64 to 66 °C.

The molecule `CS(=O)(=O)CC1(CBr)CCOCC1` showed a melting point of 97 to 99 °C.

With `COc1ccccc1S(N)(=O)=O`, the melting point was 169 to 171 °C.

Consider `O=[N+]([O-])c1ccc(S(=O)(=O)Cl)c(Cl)c1`, for which the melting point lay in the range of 75 to 77 °C.

`COc1ccc(Cl)c(S(N)(=O)=O)c1` came in with a melting point of 129 to 131 °C.

`CNC(=O)c1cc(NC)ccn1`: the melting point was in the range of 114 to 116 °C.

As to `CCOC(=O)c1sc2cc(Cl)ccc2c1Cl`, the melting point fell in the range of 75 to 77 °C.

`N#CC(N)Cc1ccccc1` (stereo not drawn) yielded a melting point of 39 to 41 °C.

With `Cc1ccc(Br)c(C(=O)O)c1`, the melting point lay in the range of 139 to 141 °C.

With `O=c1ccc([N+](=O)[O-])cn1CCCl`, the melting point fell in the range of 130 to 132 °C.

In turn, `Cc1cc2ncc3c(n2n1)C(=O)OCC3` showed a melting point of 200 to 202 °C.

The molecule `O=C1C(=O)N(Cc2ccc(Cl)cc2)c2ccccc21` registered a melting point of 163 to 165 °C.

As to `C=CCn1c(C)cc(C(=O)CCl)c1C`, the melting point fell in the range of 36 to 40 °C.

With `Nc1ccc(S(F)(F)(F)(F)F)cc1Br`, the melting point lay in the range of 58 to 60 °C.

For `O=C(O)c1cc2ccccc2cc1I`, the melting point was 215 to 217 °C.

In turn, `CCCC(=O)Nc1ccc(Cl)c(N)c1` yielded a melting point of 96 to 98 °C.

For `NC(=O)c1cccc2c1CCCN2`, the melting point lay in the range of 172 to 174 °C.

Molecule `Cc1nn(Cc2ccc(F)cc2)c2sc(C(=O)O)cc12` returned a melting point of 227 to 229 °C.

In turn, `CN(C)C(=O)c1cccc(C(=O)O)c1` registered a melting point of 134 to 136 °C.

In the case of `O=C(c1cccc(S(=O)(=O)Cl)c1)N1CCCC1`, the melting point is 65 to 67 °C.

Turning to `CC(C)c1sc(NC(=O)CCl)nc1-c1ccccc1`, the melting point lay in the range of 136 to 138 °C.

Consider `O=C(O)c1cnc2onc(C3CC3)c2c1`, for which the melting point fell in the range of 206 to 208 °C.

`O=C(O)c1cc(=O)[nH]c2ccc([N+](=O)[O-])cc12` returned a melting point of 375 to 377 °C.

In the case of `O=C(NC1CCNCC1)c1ccccc1`, the melting point fell in the range of 138 to 140 °C.

For `COC(=O)c1ncccc1O`, the melting point is 76 to 78 °C.

In the case of `Cn1cnc(S(=O)(=O)NC2CCCC2)c1Cl`, the melting point is 136 to 138 °C.

For `Cc1nn(-c2cccc(C(F)(F)F)c2)c(C)c1C(=O)C(=O)O`, the melting point was 191 to 193 °C.

Consider `CCn1cc(Br)cc1C(=O)O`, for which the melting point was 148 to 150 °C.

For the molecule `O=C(O)c1ccc([N+](=O)[O-])cc1I`, the melting point fell in the range of 139 to 141 °C.

Consider `O=C(O)c1cnc(Cc2ccc(F)cc2)s1`, for which the melting point fell in the range of 178 to 180 °C.

In turn, `Cc1ccc2c(c1)CCC2=O` came in with a melting point of 69 to 73 °C.

Molecule `O=C(O)Cn1cccc(C(F)(F)F)c1=O` had a melting point of 199 to 201 °C.

Regarding `Cc1cc(Br)ccc1CO`, the melting point is 74 to 76 °C.

In turn, `COc1ccc(-n2c(S)nnc2-c2ccncc2)cc1` had a melting point of 242 to 244 °C.

Turning to `CC(=O)CSc1ccccc1C(=O)O`, the melting point was in the range of 158 to 160 °C.

Molecule `O=C(O)c1c[nH]cc1C(=O)O` displayed a melting point of 311 to 313 °C.

For the molecule `O=C(O)CCn1nc(-c2cccs2)oc1=O`, the melting point was in the range of 146 to 148 °C.

`CC(C)CN1C(=O)CC(=O)NC1=O` gave a melting point of 144 to 146 °C.

On to `CC(Cl)C(=O)N1CCN(C(=O)OC(C)(C)C)CC1` (stereo not drawn), for which the melting point is 115 to 117 °C.

On to `O=c1occc2cccnc12`, for which the melting point was in the range of 157 to 159 °C.

Consider `NS(=O)(=O)c1ccc2c(c1)CCCO2`, for which the melting point was 145 to 147 °C.

With `NC(=O)C1CCCC(N)C1` (stereo not drawn), the melting point is 132 to 134 °C.

Molecule `Cc1ccsc1-c1nsc(N)n1` returned a melting point of 165 to 167 °C.

In turn, `Cn1cc(C(=O)Nc2ccc(O)cc2)cn1` yielded a melting point of 231 to 233 °C.

Turning to `O=C(O)CCc1nnc[nH]1`, the melting point is 127 to 129 °C.

For `CCNC(=O)N1CCc2c(cccc2-n2nnc(C(=O)O)c2C)C1`, the melting point fell in the range of 200 to 202 °C.

The molecule `CC(=O)Nc1c(Br)cccc1[N+](=O)[O-]` registered a melting point of 192 to 194 °C.

For the molecule `CC(Br)c1cccc2ccccc12` (stereo not drawn), the melting point is 36 to 38 °C.

`CC(C)(C)OC(=O)Nc1cccc(C#N)c1` had a melting point of 127 to 129 °C.

With `FC(F)(F)Oc1ccc(-n2nnnc2S)cc1`, the melting point was 123 to 125 °C.

In turn, `CCNS(=O)(=O)c1ccc(Br)c(C)c1` displayed a melting point of 91 to 93 °C.

The molecule `COc1ccc(NCC(=O)NN)cc1` showed a melting point of 94 to 98 °C.

`Cn1cccc1C(=O)NN` displayed a melting point of 113 to 115 °C.

For the molecule `Clc1cc(-n2ccnc2)ncn1`, the melting point fell in the range of 127 to 129 °C.

Molecule `ClCc1cn(-c2ccc(Cl)cc2)nn1` returned a melting point of 139 to 141 °C.

`O=C(O)CN1CCCOC1=O` registered a melting point of 172 to 174 °C.

For `O=C(O)C1CCN(C(=O)c2ccoc2)CC1`, the melting point was 103 to 105 °C.

For the molecule `Cc1cc(C)nc(-n2nccc2N)n1`, the melting point is 183 to 185 °C.

`O=C(C(=O)c1ccccn1)c1ccccn1` yielded a melting point of 154 to 156 °C.

Molecule `Cc1nc(-c2ccccc2N)no1` registered a melting point of 77 to 79 °C.

As to `CN(C)C=C(Br)C=O`, the melting point lay within 48 to 50 °C.

As to `O=C(O)c1cc2occc2s1`, the melting point lay within 188 to 190 °C.

Turning to `N#Cc1ccc(C(=O)O)[nH]1`, the melting point fell in the range of 239 to 241 °C.

Turning to `NC(=O)C1CCN(c2ccc(N)cc2)CC1`, the melting point lay in the range of 205 to 207 °C.

In turn, `O=C(O)Cc1ccc(-n2cccn2)cc1` registered a melting point of 130 to 132 °C.

As to `O=C(O)CCNC(=O)OCc1ccccc1`, the melting point was 104 to 108 °C.

In the case of `O=C(O)C(=Cc1ccc(F)cc1)c1cccs1`, the melting point lay in the range of 185 to 187 °C.

With `Cc1ccc(CCCCC(=O)O)cc1`, the melting point is 75 to 77 °C.

On to `Nn1c(S)nnc1C1CCOCC1`, for which the melting point was 177 to 179 °C.

With `O=C1OCCN1S(=O)(=O)Cl`, the melting point lay within 94 to 96 °C.

With `CC(C)(C)C1=NN(c2ccccc2)C(=O)C1=CCl`, the melting point was 89 to 91 °C.

Consider `CC(=O)Nc1ccc(C)c(N)c1`, for which the melting point lay within 134 to 136 °C.

Molecule `Nc1nc(-c2ccco2)cs1` had a melting point of 109 to 111 °C.
